Converted amounts (≈) assume the structure as drawn.
Key:
[1] = Cytotoxicity against human PANC1 cells after 48 hrs by MTT assay; assay type: cell-based, PANC-1; conditions: for GI50 at 48 h: PANC1 cells; for GI90: panc-1, 48 h
[2] = system: Mycobacterium tuberculosis; test: Antitubercular activity against dormant Mycobacterium tuberculosis H37Ra ATCC 25177 incubated for 40 mins by XTT Reduction Menadione Assay; assay type: functional; conditions: H37Ra ATCC 25177, 40 min
Aspergillus niger = test: Antifungal activity against Aspergillus niger NCIM 1196 after 48 hrs by agar cup plate method; assay type: functional; conditions: NCIM 1196, 48 h
[3] = Cytotoxicity against human THP1 cells after 48 hrs by MTT assay; assay type: cell-based, THP-1; conditions: for GI50 at 48 h: THP1 cells; for GI90: thp-1, 48 h
Cryptococcus neoformans = test: Antifungal activity against Cryptococcus neoformans NCIM 576 after 48 hrs by agar cup plate method; assay type: functional; conditions: NCIM 576, 48 h
[4] = system: Mycobacterium tuberculosis; test: Antitubercular activity against Mycobacterium tuberculosis H37Ra ATCC 25177 at 10 ug/ml incubated for 40 mins by XTT Reduction Menadione Assay; assay type: functional; conditions: H37Ra ATCC 25177, 40 min, read-out: GI
[5] = system: Mycobacterium tuberculosis; test: Antitubercular activity against active Mycobacterium tuberculosis H37Ra ATCC 25177 incubated for 40 mins by XTT Reduction Menadione Assay; assay type: functional; conditions: H37Ra ATCC 25177, 40 min
Aspergillus flavus = test: Antifungal activity against Aspergillus flavus NCIM 539 after 48 hrs by agar cup plate method; assay type: functional; conditions: NCIM 539, 48 h
[6] = system: Mycobacterium bovis BCG str. ATCC 35743; test: Antitubercular activity against dormant Mycobacterium bovis BCG ATCC 35743 at 3 ug/ml incubated for 40 mins by XTT Reduction Menadione Assay; assay type: functional
Fusarium oxysporum = test: Antifungal activity against Fusarium oxysporum NCIM 1332 after 48 hrs by agar cup plate method; assay type: functional; conditions: NCIM 1332, 48 h
[7] = system: Mycobacterium bovis BCG str. ATCC 35743; test: Antitubercular activity against dormant Mycobacterium bovis BCG ATCC 35743 at 10 ug/ml incubated for 40 mins by XTT Reduction Menadione Assay; assay type: functional
[8] = system: Mycobacterium tuberculosis; test: Antitubercular activity against Mycobacterium tuberculosis H37Ra ATCC 25177 at 3 ug/ml incubated for 40 mins by XTT Reduction Menadione Assay; assay type: functional; conditions: H37Ra ATCC 25177, 40 min, read-out: GI
Candida albicans = test: Antifungal activity against Candida albicans NCIM 3471 after 48 hrs by agar cup plate method; assay type: functional; conditions: NCIM 3471, 48 h
[9] = (§1) Cytotoxicity against human A549 cells after 48 hrs by MTT assay; assay type: cell-based; conditions: A549 cells
A549 = test: as §1; assay type: cell-based; conditions: a549, 48 h
[10] = system: Mycobacterium tuberculosis; test: Antitubercular activity against Mycobacterium tuberculosis H37Ra ATCC 25177 incubated for 40 mins by XTT Reduction Menadione Assay; assay type: functional; conditions: H37Ra ATCC 25177, 40 min
[11] = Antitubercular activity against Mycobacterium bovis BCG ATCC 35743 incubated for 40 mins by XTT Reduction Menadione Assay; assay type: functional, Mycobacterium bovis BCG str. ATCC 35743; conditions: Mycobacterium tuberculosis variant bovis BCG, ATCC 35743, 40 min
[12] = system: Mycobacterium tuberculosis; test: Antitubercular activity against Mycobacterium tuberculosis H37Ra ATCC 25177 at 30 ug/ml incubated for 40 mins by XTT Reduction Menadione Assay; assay type: functional; conditions: H37Ra ATCC 25177, 40 min, read-out: GI
[13] = system: Mycobacterium bovis BCG str. ATCC 35743; test: Antitubercular activity against dormant Mycobacterium bovis BCG ATCC 35743 at 30 ug/ml incubated for 40 mins by XTT Reduction Menadione Assay; assay type: functional
[14] = (§2) Cytotoxicity against human HeLa cells after 48 hrs by MTT assay; assay type: cell-based; conditions: HeLa cells
HeLa = test: as §2; assay type: cell-based; conditions: hela, 48 h
Pseudomonas fluorescens = test: Antibacterial activity against Pseudomonas fluorescens after 18 hrs by broth dilution method; assay type: functional
Staphylococcus aureus = test: Antibacterial activity against Staphylococcus aureus after 18 hrs by broth dilution method; assay type: functional
Bacillus subtilis = test: Antibacterial activity against Bacillus subtilis after 18 hrs by broth dilution method; assay type: functional
Escherichia coli = test: Antibacterial activity against Escherichia coli after 18 hrs by broth dilution method; assay type: functional

Row | Structure (SMILES) | GI50 at 48 h [1] | GI90 [1] | MIC (Aspergillus niger) | GI50 at 48 h [3] | GI90 [3] | MIC (Cryptococcus neoformans) | inhibition of growth at 10 µg/mL [4] | MIC (Aspergillus flavus) | growth inhibition (GI) [6] | MIC (Fusarium oxysporum) | growth inhibition (GI) [7] | inhibition of growth at 3 µg/mL [8] | MIC (Candida albicans) | GI50 at 48 h [9] | GI90 (A549) | MIC [10] | MIC [11] | inhibition of growth at 30 µg/mL [12] | growth inhibition (GI) [13] | GI50 at 48 h [14] | other results
1 | Cc1ccc2c(c1)cc(/C=C1\SC(=S)N(CC(=O)O)C1=O)c1nnnn12 | > 100 µg/mL | > 100 µg/mL | 150 µg/mL (≈ 389 µM) | > 100 µg/mL | > 100 µg/mL | 100 µg/mL (≈ 259 µM) | 16.3% | 50 µg/mL (≈ 130 µM) | 20.2% | 100 µg/mL (≈ 259 µM) | 35.3% | 17.5% | 25 µg/mL (≈ 64.9 µM) | > 100 µg/mL | > 100 µg/mL | 88.1 µg/mL (≈ 229 µM) | 84.4 µg/mL (≈ 219 µM) | 36.7% | -14.8% | > 100 µg/mL | IC90 [2]: 88.1 µg/mL (≈ 229 µM); IC90 [5]: 49.2 µg/mL (≈ 128 µM); GI90 (HeLa): > 100 µg/mL
2 | Cc1cccc2cc(/C=C3\SC(=S)N(CC(=O)O)C3=O)c3nnnn3c12 | – | – | 100 µg/mL (≈ 259 µM) | – | – | 125 µg/mL (≈ 324 µM) | 36.8% | 50 µg/mL (≈ 130 µM) | -41.4% | 50 µg/mL (≈ 130 µM) | -46.2% | 44.5% | 25 µg/mL (≈ 64.9 µM) | – | – | 93.2 µg/mL (≈ 242 µM) | 86 µg/mL (≈ 223 µM) | 28.2% | -58.8% | – | MIC (Pseudomonas fluorescens): 162 µg/mL (≈ 420 µM); MIC (Staphylococcus aureus): 106 µg/mL (≈ 274 µM); MIC (Bacillus subtilis): 135 µg/mL (≈ 351 µM); MIC (Escherichia coli): 149 µg/mL (≈ 387 µM)
3 | COc1ccc2cc(/C=C3\SC(=S)N(CCC(=O)O)C3=O)c3nnnn3c2c1 | – | – | 50 µg/mL (≈ 120 µM) | – | – | 150 µg/mL (≈ 361 µM) | 21.7% | 125 µg/mL (≈ 301 µM) | 18.8% | 150 µg/mL (≈ 361 µM) | 20.5% | 0.02% | 100 µg/mL (≈ 241 µM) | – | – | > 250 µg/mL | > 250 µg/mL | 12.5% | 19% | – | –
4 | CC(=O)O[C@H]1C(=O)[C@@]2(C)[C@H]([C@H](OC(=O)c3ccccc3)[C@]3(O)C[C@H](OC(=O)[C@H](O)[C@@H](NC(=O)c4ccccc4)c4ccccc4)C(C)=C1C3(C)C)[C@]1(OC(C)=O)CO[C@@H]1C[C@@H]2O [PACLITAXEL] | 0.128 µg/mL (≈ 0.15 µM) | 5.715 µg/mL (≈ 6.69 µM) | – | 0.137 µg/mL (≈ 0.161 µM) | 5.814 µg/mL (≈ 6.81 µM) | – | – | – | – | – | – | – | – | < 0.004 µg/mL | 0.038 µg/mL (≈ 0.0445 µM) | – | – | – | – | 0.0048 µg/mL (≈ 0.00562 µM) | GI90 (HeLa): 0.075 µg/mL (≈ 0.0878 µM)
5 | COc1ccc2c(c1)cc(/C=C1\SC(=S)N(CC(=O)O)C1=O)c1nnnn12 | – | – | 50 µg/mL (≈ 125 µM) | – | – | 150 µg/mL (≈ 374 µM) | 0.62% | 150 µg/mL (≈ 374 µM) | -9.36% | 100 µg/mL (≈ 249 µM) | 32.1% | 7.3% | 50 µg/mL (≈ 125 µM) | – | – | > 250 µg/mL | > 250 µg/mL | 38% | 49.8% | – | –
6 | O=C1NC(=S)S/C1=C\c1cc2ccccc2n2nnnc12 | > 100 µg/mL | > 100 µg/mL | 100 µg/mL (≈ 319 µM) | > 100 µg/mL | > 100 µg/mL | 75 µg/mL (≈ 239 µM) | 71% | 125 µg/mL (≈ 399 µM) | -8.27% | 150 µg/mL (≈ 479 µM) | -5.07% | 34% | 150 µg/mL (≈ 479 µM) | 79.2 µg/mL (≈ 253 µM) | > 100 µg/mL | 162 µg/mL (≈ 515 µM) | 168 µg/mL (≈ 536 µM) | 51.8% | -15.7% | > 100 µg/mL | IC90 [2]: 162 µg/mL (≈ 515 µM); IC90 [5]: > 250 µg/mL; MIC (Pseudomonas fluorescens): 186 µg/mL (≈ 593 µM); MIC (Staphylococcus aureus): 153 µg/mL (≈ 487 µM); MIC (Bacillus subtilis): 204 µg/mL (≈ 652 µM); MIC (Escherichia coli): 212 µg/mL (≈ 677 µM); GI90 (HeLa): > 100 µg/mL
7 | O=C(O)CN1C(=O)/C(=C/c2cc3ccccc3n3nnnc23)SC1=S | – | – | 125 µg/mL (≈ 337 µM) | – | – | 150 µg/mL (≈ 404 µM) | -2.04% | 125 µg/mL (≈ 337 µM) | -52.6% | 50 µg/mL (≈ 135 µM) | -28.9% | 12.2% | 50 µg/mL (≈ 135 µM) | – | – | > 250 µg/mL | > 250 µg/mL | 1.49% | -12.2% | – | MIC (Pseudomonas fluorescens): 182 µg/mL (≈ 489 µM); MIC (Staphylococcus aureus): 151 µg/mL (≈ 408 µM); MIC (Bacillus subtilis): 124 µg/mL (≈ 333 µM); MIC (Escherichia coli): 178 µg/mL (≈ 480 µM)

Reference: ChEMBL document CHEMBL3792317, “Novel tetrazoloquinoline-rhodanine conjugates: Highly efficient synthesis and biological evaluation” (Bioorg Med Chem Lett, 2016)
